Source: patent US7964630B2, “Topical application agents against mimic and age-related wrinkles” (DSM IP Assets B.V., priority 2004, dated 2011)
Non-standard residues stand in square brackets, D forms with d. Residues, ends and D or L forms follow the SMILES beside them. *: point of attachment. NHPhenethyl = c1ccc(CCN*)cc1; Dap = NC[CH](N)C(=O)O; NHBn = c1ccc(CN*)cc1

Key:
[1] = tested on: co-culture model of human muscle cells and neurons from the spinal marrow of rat embryos; assay: Efficacy test: frequency of muscle contractions in a nerve-muscle co-culture model; format: cell-based, human (myoblasts), rat (embryo spinal explants); details: for Variation Δ [in %] of the number of muscle contractions (1 min): 1 minute after incubation; for Variation Δ [in %] of the number of muscle contractions (1 min) / Variation Δ [in %] of the number of muscle contractions (2 h) / Variation Δ [in %] of the number of muscle contractions (48 h): contractions counted for 30 seconds, compared to number before incubation, means of 3 measurements; for Variation Δ [in %] of the number of muscle contractions (2 h): 2 hours after incubation; for Variation Δ [in %] of the number of muscle contractions (48 h): 48 hours after incubation
Method: Culture conditions: 37° C., 5% CO2 In order to test the efficacy of the compounds of the present invention, a co-culture model of human muscle cells on one hand and neurons from the spinal marrow of rat embryos on the other hand was established. Normal human muscle cells (myoblasts) were cultured in gelatine-coated 24-well plates until a monolayer of myofibrils (from fused muscle cells) had formed. Afterwards, an explant of the spinal marrow of a 13 day-old rat embryo with dorsal root ganglia was placed on the muscle cell monolayer. After one day of co-culture, the first axons were seen to grow out of the explant to come in contact with muscle cells. The first contractions appeared after 5 days. […] At this stage of development, the myofibrils performed regular contractions and the model was used for the tests.

[2] = tested on: Ca++-dependent neurotransmitter release in the synapses; details: cited from earlier work

| Structure (SMILES) | Variation Δ [in %] of the number of muscle contractions (1 min) ([1]; 0.1 mM) [%] | Variation Δ [in %] of the number of muscle contractions (2 h) ([1]; 0.1 mM) [%] | Variation Δ [in %] of the number of muscle contractions (48 h) ([1]; 0.1 mM) [%] | Variation Δ [in %] of the number of muscle contractions (1 min) ([1]; 0.5 mM) [%] | Variation Δ [in %] of the number of muscle contractions (2 h) ([1]; 0.5 mM) [%] | Variation Δ [in %] of the number of muscle contractions (48 h) ([1]; 0.5 mM) [%] | Variation Δ [in %] of the number of muscle contractions (1 min) ([1]; 1.0 mM) [%] | Variation Δ [in %] of the number of muscle contractions (2 h) ([1]; 1.0 mM) [%] | Variation Δ [in %] of the number of muscle contractions (48 h) ([1]; 1.0 mM) [%] | Variation Δ [in %] of the number of muscle contractions (1 min) ([1]; 0.05 mM) [%] | Variation Δ [in %] of the number of muscle contractions (2 h) ([1]; 0.05 mM) [%] | muscle-relaxing effect / activity profile with regard to muscle relaxation ([1]; result in words) | acts weaker than Botox (factor) [2] [times] |
| --- | --- | --- | --- | --- | --- | --- | --- | --- | --- | --- | --- | --- | --- |
| CC(N)C(=O)N1CCCC1C(=O)NC(CCCNC(=N)N)C(=O)NCc1ccccc1 (stereo not drawn) [4.2] (H-Ala-Pro-Arg-NHBn; configuration not given here) | 85 | 78 | 37 | 93 | 37 | 36 | 85 | 12 | 60 |  |  |  |  |
| CC(N)C(=O)N1CCCC1C(=O)NC(CCCNC(=N)N)C(=O)NC(CCCNC(=N)N)C(=O)NCc1ccccc1 (stereo not shown) [4.3] (H-APRR-NHBn; configuration not given here) | 91 | 5 | 88 | 73 | 1 | 87 | 25 | 0 | 7 |  |  |  |  |
| N=C(N)NCCCC(NC(=O)C1CCCN1C(=O)C(N)CN)C(=O)NCc1ccccc1 (stereo not drawn) [4.6] (H-[Dap]-Pro-Arg-NHBn; configuration not given here) | 85 | 68 | 43 | 78 | 42 | 0 | 68 | 35 | 0 |  |  |  |  |
| CC(N)C(=O)N1CCCC1C(=O)NC(CCCNC(=N)N)C(=O)NCCc1ccccc1 (stereo not drawn) [4.7] (H-Ala-Pro-Arg-NHPhenethyl; configuration not given here) | 103 | 69 | 74 | 91 | 0 | 34 | 105 | 65 | 3 |  |  |  |  |
| COc1ccc(CNC(=O)C(CCCNC(=N)N)NC(=O)C2CCCN2C(=O)C(C)N)cc1 (stereo not shown) [4.8] | 85 | 37 | 132 | 84 | 90 | 78 | 100 | 58 | 32 |  |  |  |  |
| C[C@H](N=C(N(C)C)N(C)C)C(=O)N1CCC[C@@H]1C(=O)N[C@@H](CCCNC(=N)N)C(=O)NCc1ccccc1 [4.11] | 105 | 75 | 96 | 105 | 16 | 22 | 104 | 7 | 0 |  |  |  |  |
| CSCC[C@H](NC(=O)[C@H](CCC(=O)O)NC(=O)[C@H](CCC(=O)O)NC(C)=O)C(=O)N[C@@H](CCC(N)=O)C(=O)N[C@@H](CCCNC(=N)N)C(=O)N[C@@H](CCCNC(=N)N)C(N)=O [Product A, Ac-Glu-Glu-Met-Gln-Arg-Arg-NH2, reference compound] (Ac-EEMQRR-NH2) | 103 | 120 |  | 106 | 91 |  | 99 | 88 |  | 103 | 96 | too weak and too inconstant | 5000 |
